# In US20240108720A1, “SOLE USE OF POLYMERSOME ASSOCIATED ADJUVANT FOR STIMULATING AN IMMUNE RESPONSE” (priority 2021, published 2024):
# What was measured:
# human PBMCs = assay: Cytokine profile in human PBMCs ex vivo (ELISA); assay type: cell-based
# Method: In the present ex vivo experiment, peripheral blood mononuclear cells (PBMCs) from six healthy donors were stimulated with free CpG-A, free CpG-B (7909) or ACM-CpG-B at increasing concentration (0.62, 1.25, 2.5 and 5 μM). Levels of IL-6 and IFNα secreted into culture supernatant was measured by ELISA. […] The ability to induce both cytokines was advantageous as they stimulate DCs to mature and B cells to proliferate and produce antibody, respectively.
# [1] = tested on: classical dendritic cells (cDCs); assay: Activation of classical dendritic cells in inguinal lymph nodes after SC injection; assay type: in vivo, C57BL/6 mice; details: 5 μg SC, inguinal lymph nodes two days after
# Method: Class B CpG binds endosomal Toll-like receptor 9 (TLR9) to induce several immunological effects, including activation of dendritic cells (DCs), production of pro-inflammatory cytokines and B cell differentiation and antibody secretion. These attributes make class B CpG valuable as a vaccine adjuvant. In this study, C57BL/6 mice were subcutaneously (SC) injected with 5 μg free murine CpG 1826 or ACM-CpG 1826 to compare their relative abilities to activate classical dendritic cells (cDCs). Two days after, inguinal lymph nodes (which drain the site of injection) were harvested to assess DC activation. […] Moreover, ACM polymersomes alone were non-immunogenic and thus enhanced DC activation was due to efficient delivery of CpG to endosomal TLR9.
# C57BL/6 splenocytes = assay: Cytokine production by splenocytes in vitro (adjuvant activity); assay type: cell-based, mice; details: culture supernatant, approximately 20 h, 0.125-0.5 μM
# Method: It is known that CpG can induce cytokine production by BALB/c splenocytes in vitro. In this experiment adjuvant effect of ACM polymersomes with CpG were studied. The experimental procedure included: • 1. Spleens harvested from three C57BL/6 mice • 2. 3 million splenocytes added to each well of 96-well plate in complete RPMI. • 3. The following treatment groups were used: untreated, free CpG, ACM-CpG and empty ACM, which were incubated approximately 20 h at 37° C. 5% C02. • 4. Collection of culture supernatants and measurement of IL-6 and IL-12p70 which are indicators of adjuvant effect. • 5. The following 96-well plate format was used for measurements (ms) carried out in triplicates (Table 1)
# C57bl/6 mice = assay: Immunization with OVA conjugated or encapsulated ACMs, sera tittering by ELISA (Example 13); assay type: in vivo; details: 4 μg of OVA per injection, sera 21 days after the boost
# Method: C57bl/6 mice were immunized with different OVA formulations: PBS (negative control), free OVA with or without Sigma Adjuvant System (SAS), OVA encapsulated ACMs or OVA conjugated ACMs. Balb/c mice were immunized with different HA formulations: PBS (negative control), free HA, HA encapsulated ACMs or HA conjugated ACMs. […] All immunizations were performed with a same final amount of antigen within each trial: 5-10 μg OVA/injection/mouse or 100-200 ng HA/injection/mouse. Final bleeds were collected 42 days after prime. ELISA was then performed to assess titers: OVA or HA were coated onto MaxiSorp plates (1 μg/ml in carbonate buffer) overnight. Plates were blocked using 3% BSA in PBS for 1 h at RT. All sera were diluted at 1:100 and incubated on plates for 1 h at RT. After 3 washes with PBS+0.05% Tween 20, secondary antibody anti-mouse IgG HRP coupled was incubated at 1:10,000 dilution for 1 h, RT (room temperature). After 3 washes with PBS/Tween 20 buffer, TMB substrate was added and reaction was stopped using 1M HCl. Optical densities were quantified at 450 nm.
# C57bl/6 mice were immunized with the following formulations: a negative control (PBS), free OVA with or without Sigma Adjuvant System (SAS), BD21 encapsulated OVA and BD21 conjugated OVA. […] 21 days after the boost, sera were collected for tittering by ELISA.
# [2] = PBMCs from six healthy donors, 0.62, 1.25, 2.5 and 5 μM
molecule,measurement,setting,value
CpG 7909 [CpG-B],CpG concentration at which IL-6 levels saturate,human PBMCs; PBMCs from six healthy donors,around 1.25 μM
same,IFNα production,human PBMCs; [2],little to none was detected
same,IL-6 secreted into culture supernatant,human PBMCs; [2],low to moderate quantities
CpG ODN1826 [free CpG],CD86 and CD80 activation marker expression on cDC2,[1],significant increase in CD86 and CD80 expression on cDC2
same,IL-6 production,C57BL/6 splenocytes,only detected in free CpG- or ACM-CpG-treated splenocytes
same,IL-12 (IL-12p70) production,C57BL/6 splenocytes,not detected even in neat culture supernatant
"Ovalbumin (OVA) (protein, listed as Gallus gallus) MGSIGAASMEFCFDVFKELKVHHANENIFYCPIAIMSALAMVYLGAKDSTRTQINKVVRFDKLPGFGDSIEAQCGTSVNVHSSLRDILNQITKPNDVYSFSLASRLYAEERYPILPEYLQCVKELYRGGLEPINFQTAADQARELINSWVESQTNGIIRNVLQPSSVDSQTAMVLVNAIVFKGLWEKAFKDEDTQAMPFRVTEQESKPVQMMYQIGLFRVASMASEKMKILELPFASGTMSMLVLLPDEVSGLEQLESIINFEKLTEWTSSNVMEERKIKVYLPRMKMEEKYNLTSVLMAMGITDVFSSSANLSGISSAESLKISQAVHAAHAEINEAGREVVGSAEAGVDAASVSEEFRADHPFLFCIKHIATNAVLFFGRCVSP",IgG response / titer against OVA (ELISA),C57bl/6 mice,not able to elicit an IgG response
